Results taken from patent publication US20240350440A1, “EXTRACTION OF ABSCISIC ACID FROM STRAWBERRIES” (KING FAISAL UNIVERSITY, priority 2023, published 2024).
Marks after values point to notes of the source that are not given here.

Key:
Format in all cases: in vivo
[1] = test system: albino rat after inducing myocardial infarction disease; assay: Biological cardiac markers in adrenaline-induced myocardial infarction; conditions: MI induced by high dose of adrenaline
Method: (§1) The extracted and purified ABA was tested on an albino rat after inducing myocardial infarction disease by using a high dose of adrenaline at Alexandria faculty of medicine and all tests of examination were performed (chemical, electrocardiograph Histological).

[2] = test system: albino rat after inducing myocardial infarction disease; assay: Electrocardiogram assessment in adrenaline-induced myocardial infarction; conditions: MI induced by high dose of adrenaline
Method: as §1

[3] = test system: albino rat after inducing myocardial infarction disease; assay: Histopathological assessment of H&E-stained heart tissue; set-up: key: grade 1 (normal histological the appearance of the myocardium); grade 2 (focal necrosis of myocardium); grade 3 (focal necrosis of myocardial fiber with neutrophil infiltration and interstitial edema); grade 4 (extensive necrosis of myocardial fiber with hemorrhage, interstitial edema, marked neutrophil infiltration and severe myofibrillary degeneration); conditions: MI rat
Method: as §1
With reference to the Figures, the histopathological assessment of H&E-stained (hematoxylin and eosin stained) heart tissue was scored according to severity of myocardial changes: grade 1 (normal histological the appearance of the myocardium), grade 2 (focal necrosis of myocardium), grade 3 (focal necrosis of myocardial fiber with neutrophil infiltration and interstitial edema), and grade 4 (extensive necrosis of myocardial fiber with hemorrhage, interstitial edema, marked neutrophil infiltration and severe myofibrillary degeneration).

[4] = test system: albino rat after inducing myocardial infarction disease; assay: Oxidative stress markers and antioxidant enzymes in adrenaline-induced myocardial infarction; conditions: MI induced by high dose of adrenaline
Method: as §1

SMILES	CK-MB [1]	LDH [1]	Troponin [1]	COP (mean ml/min) [2]	HR (mean b/min) [2]	RR (interval/sec) [2]	ST height [2]	carotid flow mean [2]	histopathological score, severity of myocardial changes [3]	Catalase [4]	GSH [4]	MDA [4]	NO [4]
CC1=CC(=O)CC(C)(C)C1(O)/C=C/C(C)=C\C(=O)O (centres unmarked) [Extracted ABA, abscisic acid]	1.14 ± 0.02^bc U/L	482.67 ± 4.63^bc U/L	1.71 ± 0.02^b ng/ml	18.57 ± 1.04^b ml/min	247.4 ± 9.69^cd b/min	0.73 ± 0.034^b sec	42.98 ± 4.05^b mm	18.06 ± 1.15^b ml/min	grade 3	97 ± 1.73^bc U/g protein	21.66 ± 0.39^a μmol/g protein	5.68 ± 0.27^bcd μmol/g protein	47.78 ± 4.49^bc μM/g protein
CC1=CC(=O)CC(C)(C)[C@@]1(O)/C=C/C(C)=C\C(=O)O [Standard ABA, abscisic acid]	1.22 ± 0.03^b U/L	587.33 ± 30.12^b U/L	1.72 ± 0.05^b ng/ml	17.52 ± 0.1^b ml/min	255.77 ± 1.23^bc b/min	0.7 ± 0.003^c sec	39.33 ± 2.15^b mm	17.4 ± 0.16^b ml/min	grade 3	112 ± 23.09^abc U/g protein	20.01 ± 2.27^a μmol/g protein	6.13 ± 1.34^bc μmol/g protein	48.61 ± 5.61^bc μM/g protein
